Activity calls are given as the source filed them. The calls are words filed in the database; no cut-off is given here. Positions of bridges follow the written chain, without caps; N, C: chain ends. Non-standard residues stand in square brackets, D forms with d. Residues, ends and D or L forms follow the SMILES beside them. *: point of attachment. NMe2Val = CC(C)[C@@H](C(=O)*)N(C)C; NMeLys(Me) = CNCCCC[C@H](NC)C(=O)O; NMeI = CC[C@H](C)[C@H](NC)C(=O)O; NMeT = CN[C@H](C(=O)O)[C@@H](C)O; NMeL = CN[C@@H](CC(C)C)C(=O)O; NMeDap = CN[C@@H](CN)C(=O)O; dHiv = CC(C)[C@@H](O)C(=O)O; NMeA = CN[C@@H](C)C(=O)O; dNMeA = CN[C@H](C)C(=O)O
How the values were obtained:
Assay type in all cases: functional, cell-based
SF-268 [1] = assay: Inhibition of endogenously-secreted VEGF-A in human SF-268 cells incubated for 24 hrs by ELISA assay; conditions: dose 30-100 nM
U-87 MG [2] = assay: Antiproliferative activity against human U-87 MG cells expressing GLuc assessed as as inhibition of GLuc secretion incubated for 18 hrs by CellTiter-Glo Luminescent Cell Viability Assay; conditions: U-87MG ATCC
U-87 MG [3] = assay: Antiproliferative activity against human U-87MG cells expressing GLuc assessed as cell viability at 0.0003 to 300 nM incubated for 18 hrs by CellTiter-Glo Luminescent Cell Viability Assay; conditions: U-87MG ATCC, dose 0.0003-300 nM
U-87 MG [4] = assay: Antiproliferative activity against human U87 cells expressing GLuc assessed as inhibition of GLuc secretion incubated for 18 hrs by CellTiter-Glo Luminescent Cell Viability Assay; conditions: U-87MG ATCC, dose 0.1-10 µM
SF-268 [5] = assay: Downregulation of VEGF-A protein secretion level in human SF-268 cells at 30 to 300 nM for 24 hrs by ELISA analysis; conditions: dose 30-300 nM
SF-268 [6] = assay: Downregulation of VEGF-A protein secretion level in human SF-268 cells for 24 hrs by ELISA analysis; conditions: dose 30-100 nM

| Structure (SMILES) | inhibition (SF-268 [1]) | inhibition (U-87 MG [2]) | inhibition (U-87 MG [3]) | Activity (U-87 MG [4]) | Activity (SF-268 [5]) | Activity (SF-268 [6]) |
| --- | --- | --- | --- | --- | --- | --- |
| CC[C@H](C)[C@H]1C(=O)N[C@@H](C)C(=O)N(C)[C@@H](CC(C)C)C(=O)N[C@@H](Cc2ccc(OC)cc2)C(=O)N(C)CCCC[C@H](N(C)C(=O)[C@H](CC(C)C)N(C)C(=O)[C@H](C)N(C)C(=O)[C@H](OC(=O)[C@H](C(C)C)N(C)C)C(C)C)C(=O)N(C)[C@@H](C)C(=O)N1C (NMe2Val-[dHiv][NMeA][NMeL][NMeLys(Me)][NMeA][NMeI]A[NMeL]Y(Me); lactam 4-C) | Dose-Dependent Effect | Dose-Dependent Effect | inactive | Dose-Dependent Effect | Dose-Dependent Effect |  |
| CC[C@H](C)[C@H]1C(=O)N[C@@H](C)C(=O)N(C)[C@@H](CC(C)C)C(=O)N[C@@H](Cc2ccc(OC)cc2)C(=O)N(C)[C@H](C)C(=O)O[C@H](C)[C@H](N(C)C(=O)[C@H](CC(C)C)N(C)C(=O)[C@H](C)N(C)C(=O)[C@H](OC(=O)[C@H](C(C)C)N(C)C)C(C)C)C(=O)N(C)[C@@H](C)C(=O)N1C (NMe2Val-[dHiv][NMeA][NMeL][NMeT][NMeA][NMeI]A[NMeL]Y(Me)[dNMeA]; ester 4-C) |  | Dose-Dependent Effect | inactive | Dose-Dependent Effect |  |  |
| CC[C@H](C)[C@H]1C(=O)N[C@@H](C)C(=O)N(C)[C@@H](CC(C)C)C(=O)N[C@@H](Cc2ccc(OC)cc2)C(=O)N(C)[C@H](C)C(=O)N(C)C[C@H](N(C)C(=O)[C@H](CC(C)C)N(C)C(=O)[C@H](C)N(C)C(=O)[C@H](OC(=O)[C@H](C(C)C)N(C)C)C(C)C)C(=O)N(C)[C@@H](C)C(=O)N1C |  | Dose-Dependent Effect | inactive |  |  |  |
| CC[C@H](C)[C@H]1C(=O)N[C@@H](C)C(=O)N(C)[C@@H](CC(C)C)C(=O)N[C@@H](Cc2ccc(OC)cc2)C(=O)N(C)[C@H](C)C(=O)NC[C@H](N(C)C(=O)[C@H](CC(C)C)N(C)C(=O)[C@H](C)N(C)C(=O)[C@H](OC(=O)[C@H](C(C)C)N(C)C)C(C)C)C(=O)N(C)[C@@H](C)C(=O)N1C (NMe2Val-[dHiv][NMeA][NMeL][NMeDap][NMeA][NMeI]A[NMeL]Y(Me)[dNMeA]; lactam 4-C) |  | Dose-Dependent Effect | inactive | Dose-Dependent Effect |  |  |
| CC[C@H](C)[C@H]1C(=O)N[C@@H](C)C(=O)N(C)[C@@H](CC(C)C)C(=O)N[C@@H](Cc2ccc(OC)cc2)C(=O)N(C)[C@H](C)C(=O)N[C@H](C)[C@H](N(C)C(=O)[C@H](CC(C)C)N(C)C(=O)[C@H](C)N(C)C(=O)[C@H](OC(=O)[C@H](C(C)C)N(C)C)C(C)C)C(=O)N(C)[C@@H](C)C(=O)N1C |  | Dose-Dependent Effect | inactive | Dose-Dependent Effect |  |  |
| CC[C@H](C)[C@H]1C(=O)N[C@@H](C)C(=O)N(C)[C@@H](CC(C)C)C(=O)N[C@@H](Cc2ccc(OC)cc2)C(=O)N(C)[C@H](C)C(=O)N[C@H](C)[C@H](N(C)C(=O)[C@H](CC(C)C)N(C)C(=O)[C@H](COC)N(C)C(=O)[C@H](OC(=O)[C@H](C(C)C)N(C)C)C(C)C)C(=O)N(C)[C@@H](COC)C(=O)N1C | Dose-Dependent Effect | Dose-Dependent Effect | inactive | Dose-Dependent Effect |  | Dose-Dependent Effect |
| CC[C@H](C)[C@H]1C(=O)N[C@@H](C)C(=O)N(C)[C@@H](CC(C)C)C(=O)N[C@@H](Cc2ccc(-c3ccccc3)cc2)C(=O)N(C)[C@H](C)C(=O)N[C@H](C)[C@H](N(C)C(=O)[C@H](CC(C)C)N(C)C(=O)[C@H](COC)N(C)C(=O)[C@H](OC(=O)[C@H](C(C)C)N(C)C)C(C)C)C(=O)N(C)[C@@H](COC)C(=O)N1C |  | Dose-Dependent Effect | inactive | Dose-Dependent Effect |  |  |
| CC[C@H](C)[C@H]1C(=O)N[C@@H](C)C(=O)N(C)[C@@H](CC(C)C)C(=O)N[C@@H](Cc2ccc(OC)cc2)C(=O)N(C)[C@H](C)CC[C@H](C)[C@H](N(C)C(=O)[C@H](CC(C)C)N(C)C(=O)[C@H](C)N(C)C(=O)[C@H](OC(=O)[C@H](C(C)C)N(C)C)C(C)C)C(=O)N(C)[C@@H](C)C(=O)N1C | Dose-Dependent Effect | Dose-Dependent Effect | inactive | Dose-Dependent Effect | Dose-Dependent Effect |  |
| CC[C@H](C)[C@H]1C(=O)N[C@@H](C)C(=O)N(C)[C@@H](CC(C)C)C(=O)N[C@@H](Cc2ccc(OC)cc2)C(=O)N(C)[C@H](C)/C=C/[C@H](C)[C@H](N(C)C(=O)[C@H](CC(C)C)N(C)C(=O)[C@H](C)N(C)C(=O)[C@H](OC(=O)[C@H](C(C)C)N(C)C)C(C)C)C(=O)N(C)[C@@H](C)C(=O)N1C |  | Dose-Dependent Effect | inactive | Dose-Dependent Effect |  |  |
